Here are results for twelve molecules from patent US20260234157A1, “COMPOUND AND METHOD FOR TARGETED DEGRADATION OF ANDROGEN RECEPTOR” (Gan & Lee Pharmaceuticals Co., Ltd., priority 2023, published 2026).

Common to all, as to format: cell-based
Test [1] addresses T1, AR protein (Homo sapiens, UniProt P10275, T878A).
T1 construct: degradation activity of the compounds disclosed in the present disclosure on AR protein in LNCaP cells; host or cells: LNCaP FGC
T1 sequence (P10275 1-920 T878A): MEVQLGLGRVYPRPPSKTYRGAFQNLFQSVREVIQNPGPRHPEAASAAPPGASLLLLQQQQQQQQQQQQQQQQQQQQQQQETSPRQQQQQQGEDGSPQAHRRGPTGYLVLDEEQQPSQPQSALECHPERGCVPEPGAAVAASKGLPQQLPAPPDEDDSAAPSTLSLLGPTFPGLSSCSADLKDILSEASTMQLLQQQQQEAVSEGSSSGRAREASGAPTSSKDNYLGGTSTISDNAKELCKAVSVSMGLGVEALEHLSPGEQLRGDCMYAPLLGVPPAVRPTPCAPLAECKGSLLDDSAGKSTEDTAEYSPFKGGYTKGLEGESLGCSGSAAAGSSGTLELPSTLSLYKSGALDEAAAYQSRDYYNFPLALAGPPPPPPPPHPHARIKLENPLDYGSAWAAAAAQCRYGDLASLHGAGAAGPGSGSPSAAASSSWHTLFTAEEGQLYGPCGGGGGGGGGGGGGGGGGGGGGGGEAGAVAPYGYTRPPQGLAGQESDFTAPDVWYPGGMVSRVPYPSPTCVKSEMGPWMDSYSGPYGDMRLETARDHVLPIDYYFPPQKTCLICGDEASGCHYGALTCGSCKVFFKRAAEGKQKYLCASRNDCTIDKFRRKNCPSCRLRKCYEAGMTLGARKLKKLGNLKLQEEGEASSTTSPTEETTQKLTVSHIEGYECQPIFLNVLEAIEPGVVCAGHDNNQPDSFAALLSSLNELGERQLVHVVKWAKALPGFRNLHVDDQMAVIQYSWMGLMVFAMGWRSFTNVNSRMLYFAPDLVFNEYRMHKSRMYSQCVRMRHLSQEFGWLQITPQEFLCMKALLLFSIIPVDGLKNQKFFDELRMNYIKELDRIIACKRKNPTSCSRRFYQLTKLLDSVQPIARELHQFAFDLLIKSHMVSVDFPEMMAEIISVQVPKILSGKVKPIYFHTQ
Briefly: Degradation of AR protein in LNCaP cells (Western blot). Particulars: for inhibition at 0.01 µM: read-out: Degradation rates of the AR protein in LNCaP cells, 10 nM (%); for inhibition at 0.1 µM: read-out: Degradation rates of the AR protein in LNCaP cells, 100 nM (%). Put shortly:
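Percent AR degradation was derived from GAPDH-normalised Western blot band intensities (infrared detection) in LNCaP lysates.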

For test [2], the target named is T2, AR protein (Homo sapiens, UniProt P10275).
T2 construct: degradation activity of the compounds disclosed in the present disclosure on AR protein in VCaP cells; host or cells: VCaP
T2 sequence (P10275 1-920): T1 sequence (P10275 1-920 T878A) with A878T
As to the kind of experiment: Degradation of AR protein in VCaP cells (Western blot). Particulars: 8 hours; for inhibition at 0.01 µM: compound at 10 nM, read-out: Degradation rate of the AR protein in VCaP cells, 10 nM (%); for inhibition at 0.1 µM: compound at 100 nM, read-out: Degradation rate of the AR protein in VCaP cells, 100 nM (%). Put shortly: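 Western blot readout: AR band grayscale normalised to GAPDH, used to derive degradation rate. Lysates came from VCaP cells exposed to compound for 8 h, with solvent controls run in parallel.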
(In general: Immunoblotting shows a protein as a band on a membrane.)

For another test, the system named is LNCaP FGC cells. As to the kind of experiment: Inhibition of proliferation of LNCaP cells (WST-8). Conditions: Homo sapiens, LNCaP, 96 h. The procedure:
The cells were cultured in a cell culture incubator with 5% CO2 at 37° C. overnight. […] On the sixth day, 96 well plates were taken out, and 20 μL of WST-8 (Beytime, C0040) reagent was added to each well.
For orientation: Formazan colour is commonly taken as a measure of viable cells.

In a further test the test system is VCaP cells. Briefly: Inhibition of proliferation of VCaP cells (WST-8). Conditions: Homo sapiens, read-out: IC50 for inhibiting the proliferation of VCaP cells. Put shortly: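 Proliferation was read by WST-8 on day nine. Cells were VCaP FGC, seeded at 15000 cells per well in 10% FBS DMEM and kept at 37° C with 5% CO2.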
Where [3] appears, read: LNCaP cells, compound 10 nM, 8 hours, Western blot grayscale, GAPDH internal reference.
[4] abbreviates: LNCaP cells, compound 100 nM, 8 hours, Western blot grayscale, GAPDH internal reference.
Where [5] appears, read: LNCaP FGC cells, 96 hours, WST-8 absorbance at 450 nm, read-out: IC50 for inhibiting the proliferation of LNCaP cells.
Where [6] appears, read: VCaP cells, 168 hours, WST-8 absorbance at 450 nm.

Numbering of substitutions follows the chain as printed. Like-named read-outs stand apart in the source and are kept apart here.

Consider `N#Cc1ccc(O[C@H]2CC[C@H](NC(=O)c3ccc(N4CCC5(CC4)CC(F)(F)c4cc6c(cc4O5)C(=O)N(C4CCC(=O)NC4=O)C6=O)nn3)CC2)cc1Cl` (stereo partly drawn) [Compound 36], for which the inhibition at 0.01 µM on AR protein [1] (setting [3]) turned out to be 18%; at AR protein [2], 17%. Moreover, the inhibition at 0.1 µM at AR protein [1] (setting [4]) was 22%; at AR protein [2] it was 19%. Also, the values for the IC50 in the test with LNCaP FGC cells (setting [5]) and with VCaP cells (setting [6]) were 3.2 µM and 7.07 µM, respectively.
`COC1(CN2CCC3(CC2)COc2ccc4c(c2C3)C(=O)N(C2CCC(=O)NC2=O)C4)CCN(c2ccc(C(=O)N[C@H]3CC[C@H](Oc4ccc(C#N)c(Cl)c4)CC3)nn2)CC1` (stereo partly drawn) [Compound 148]: the values for the inhibition at 0.01 µM on AR protein [1] (setting [3]) and at AR protein [2] were 38% and 18%, respectively. For the same molecule, the inhibition at 0.1 µM came to 36% on AR protein [1] (setting [4]) and 35% on AR protein [2]. For the same molecule, the results for the IC50 in the test on LNCaP FGC cells (setting [5]) and in the test on VCaP cells (setting [6]) were 8.66 µM and 4.01 µM, respectively.
As to `N#Cc1ccc(O[C@H]2CC[C@H](NC(=O)c3ccc(N4CCC5(CC4)COc4cc6c(cc4C5)C(=O)N(C4CCC(=O)NC4=O)C6=O)nn3)CC2)cc1Cl` (stereo partly drawn) [Compound 60], the inhibition at 0.01 µM at AR protein [1] (setting [3]) and on AR protein [2] was 41% in each case. In addition, the inhibition at 0.1 µM on AR protein [1] (setting [4]) and on AR protein [2] was 64% in each case. Further, the IC50 in the test on LNCaP FGC cells (setting [5]) was determined as 2.4 µM; in the test with VCaP cells (setting [6]), 4.4 µM.
On to `COc1cc(O[C@H]2C(C)(C)[C@H](NC(=O)c3ccc(N4CCC(C)(CN5CCC6(CCc7cc8c(cc7O6)C(=O)N(C6CCC(=O)NC6=O)C8)CC5)CC4)cc3)C2(C)C)ccc1C#N` (stereo partly drawn) [Compound 267], for which the inhibition at 0.01 µM at AR protein [1] (setting [3]) and at AR protein [2] was 30% each time. For the same molecule, the inhibition at 0.1 µM at AR protein [1] (setting [4]) came to 66%; on AR protein [2], 69%. For the same molecule, the IC50 in the test on LNCaP FGC cells (setting [5]) is 43.2 µM; in the test with VCaP cells (setting [6]), 0.0045 µM.
`N#Cc1ccc(O[C@H]2CC[C@H](NC(=O)c3ccc(N4CC5(CC(N6CCC7(CCc8ccc9c(c8O7)CN(C7CCC(=O)NC7=O)C9=O)CC6)C5)C4)nn3)CC2)cc1Cl` (stereo partly drawn) [Compound 152]: the inhibition at 0.01 µM on AR protein [1] (setting [3]) stood at 45%; at AR protein [2], 51%. Further, the figures for the inhibition at 0.1 µM on AR protein [1] (setting [4]) and on AR protein [2] were 24% and 72%, respectively. Besides, the IC50 with LNCaP FGC cells (setting [5]) is 28.3 µM; with VCaP cells (setting [6]) it was greater than 90 µM.
Consider `COc1cc(O[C@H]2CC[C@H](NC(=O)c3ccc(N4CCC(CN5CCC6(CC5)COc5c6ccc6c5C(=O)N(C5CCC(=O)NC5=O)C6=O)(OC)CC4)cc3)CC2)ccc1C#N` (stereo partly drawn) [Compound 219], for which the inhibition at 0.01 µM was -40% at AR protein [1] (LNCaP, 8 h) and 11% on AR protein [2]. Also, the inhibition at 0.1 µM at AR protein [1] (LNCaP, 8 h) was 21%; on AR protein [2], 70%. The IC50 with LNCaP FGC cells (read-out: IC50 for inhibiting the proliferation of LNCaP cells, LNCaP FGC cells, 96 hours, WST-8 absorbance at 450 nm) stood at 0.26 µM; in the test with VCaP cells (VCaP, 168 h), 0.06 µM.
Regarding `COc1cc(O[C@H]2C(C)(C)[C@H](NC(=O)c3ccc(N4CCC(C)(CN5CC6(CCc7cc8c(cc7O6)C(=O)N(C6CCC(=O)NC6=O)C8=O)C5)CC4)cc3)C2(C)C)ccc1C#N` (stereo partly drawn) [Compound 291], the results for the inhibition at 0.01 µM on AR protein [1] (setting [3]) and on AR protein [2] were 9% and 21%, respectively. In addition, the inhibition at 0.1 µM on AR protein [1] (setting [4]) stood at 57%; at AR protein [2], 53%. In addition, the values for the IC50 in the test with LNCaP FGC cells (setting [5]) and with VCaP cells (setting [6]) were 2.88 µM and 0.047 µM, respectively.
Turning to `COc1cc(O[C@H]2C(C)(C)[C@H](NC(=O)c3ccc(N4CCC(C)(CN5CC6(CCc7cc8c(cc7O6)C(=O)N(C6CCC(=O)NC6=O)C8)C5)CC4)cc3)C2(C)C)ccc1C#N` (stereo partly drawn) [Compound 265], the inhibition at 0.01 µM at AR protein [1] (setting [3]) was 66%; on AR protein [2], 34%. Further, the values for the inhibition at 0.1 µM on AR protein [1] (setting [4]) and at AR protein [2] were 61% and 78%, respectively. In addition, the IC50 in the test with LNCaP FGC cells (setting [5]) turned out to be 44.4 µM; with VCaP cells (setting [6]), 0.0015 µM.
In the case of `N#Cc1ccc(O[C@H]2CC[C@H](NC(=O)c3ccc(N4CCN(C(=O)CN5CCC6(CC5)COc5c6ccc6c5CN(C5CCC(=O)NC5=O)C6=O)CC4)nn3)CC2)cc1Cl` (stereo partly drawn) [Compound 233], the inhibition at 0.01 µM on AR protein [1] (setting [3]) is 49%; at AR protein [2] it was 74%. Moreover, the inhibition at 0.1 µM is 62% at AR protein [1] (setting [4]) and 87% at AR protein [2]. Besides, the IC50 with LNCaP FGC cells (setting [5]) stood at 34.3 µM; in the test on VCaP cells (setting [6]) it was 0.043 µM.
Regarding `CCC1(CN2CCC3(CC2)COc2c3ccc3c2C(=O)N(C2CCC(=O)NC2=O)C3=O)CCN(c2ccc(C(=O)N[C@H]3CC[C@H](Oc4ccc(C#N)c(C(F)(F)F)c4)CC3)nn2)CC1` (stereo partly drawn) [Compound 248], the inhibition at 0.01 µM at AR protein [1] (setting [3]) was -53%; at AR protein [2] it was 2%. For the same molecule, the inhibition at 0.1 µM at AR protein [1] (setting [4]) is -16%; at AR protein [2], 17%. The IC50 in the test on LNCaP FGC cells (setting [5]) was 5.99 µM; in the test with VCaP cells (setting [6]) it was 0.21 µM.
Regarding `COc1cc(OC2C(C)(C)C(NC(=O)c3ccc(N4CCC(CN5CCC6(CC5)COc5cc7c(cc56)C(=O)N(C5CCC(=O)NC5=O)C7=O)CC4)cc3)C2(C)C)ccc1C#N` (stereo not drawn) [Compound 280], the inhibition at 0.01 µM came to 36% at AR protein [1] (setting [3]) and 15% at AR protein [2]. Moreover, the inhibition at 0.1 µM at AR protein [1] (setting [4]) is 52%; at AR protein [2], 77%. For the same molecule, the IC50 with LNCaP FGC cells (setting [5]) amounted to 9.25 µM; in the test with VCaP cells (setting [6]), 0.045 µM.
`N#Cc1ccc(O[C@H]2CC[C@H](NC(=O)c3ccc(N4CCC(CN5CCC6(CC5)COc5cc7c(cc56)C(=O)N(C5CCC(=O)NC5=O)C7=O)CC4)nn3)CC2)cc1Cl` (stereo partly drawn) [Compound 56]: the figures for the inhibition at 0.01 µM at AR protein [1] (setting [3]) and at AR protein [2] were 44% and 79%, respectively. Besides, the results for the inhibition at 0.1 µM at AR protein [1] (setting [4]) and on AR protein [2] were 77% and 88%, respectively. The values for the IC50 with LNCaP FGC cells (setting [5]) and with VCaP cells (setting [6]) were 0.35 µM and 0.06 µM, respectively.
